Source: patent publication US20230151432A1, “KIF18A INHIBITORS FOR TREATMENT OF NEOPLASTIC DISEASES” (AMGEN INC., priority 2020, published 2023)

Key:
[1] = molecular target: T1, human KIF18A (residues 1-467) (Homo sapiens, UniProt Q8NI77); assay: KIF18A MT-ATPase motor activity, ADP-Glo luminescence assay (Example 19); type: biochemical
T1 construct: human KIF18A (residues 1-467, 4 nM); made in house
Protocol: (§1) A trio of KIF18A inhibitors (Compound C9, Compound C11, and Compound C12) were synthesized and tested in vitro for KIF18A inhibitory activity. […] The values represent mean t SEM from three independent experiments. […] As in vivo studies in mice were planned, the mouse KIF18A inhibitory effects of Compound C9 and C12 were assayed.
(§2) KIF18A compounds C9, C11, C12 were 2-fold serially diluted over a 22-point concentration range in DMSO using 384-well plate (Corning). Recombinant truncated kinesin motor proteins (human KIF18A (residues 1-467, 4 nM), mouse KIF18A (residues 1-467, 4 nM)) were expressed and purified. ADP-Glo luminescence assay (Promega) was used to measure the MT-ATPase motor activity. Porcine brain MTs were procured from Cytoskeleton Inc. Compounds were pre-incubated for <30 min in reaction buffer (15 mM Tris, pH 7.5, 10 mM MgCl2, 0.01% Pluronic F-68, 2% DMSO, 1 μM paclitaxel, 30 μg/mL MTs) with motor proteins at concentrations indicated above, 30 μM ATP was added to initiate the enzymatic reaction for 15 min at room temperature (RT). ADP-Glo reagents were added according to manufactures protocol, the luminescence intensity proportional to ADP present was measured using an EnVision plate reader (Perkin Elmer). Raw luminescence signal data was normalized to POC (percentage of positive control) and then Activity (%) was computed [POC=100×(sample signal−negative control signal)+(positive control signal−negative control signal). Activity (%)=POC−100]. The positive control (enzyme+substrate) and negative control (substrate alone) had equivalent concentrations of DMSO. Curve-fitting and IC50 values were determined by 4-parameter non-linear regression equation (variable slope) using GraphPad Prism 7.05 (GraphPad Software).

[2] = molecular target: T2, mouse KIF18A (residues 1-467) (Mus musculus, UniProt Q91WD7); assay: as above; type: biochemical
T2 construct: mouse KIF18A (residues 1-467, 4 nM); made in house
T2 sequence (Q91WD7 1-467): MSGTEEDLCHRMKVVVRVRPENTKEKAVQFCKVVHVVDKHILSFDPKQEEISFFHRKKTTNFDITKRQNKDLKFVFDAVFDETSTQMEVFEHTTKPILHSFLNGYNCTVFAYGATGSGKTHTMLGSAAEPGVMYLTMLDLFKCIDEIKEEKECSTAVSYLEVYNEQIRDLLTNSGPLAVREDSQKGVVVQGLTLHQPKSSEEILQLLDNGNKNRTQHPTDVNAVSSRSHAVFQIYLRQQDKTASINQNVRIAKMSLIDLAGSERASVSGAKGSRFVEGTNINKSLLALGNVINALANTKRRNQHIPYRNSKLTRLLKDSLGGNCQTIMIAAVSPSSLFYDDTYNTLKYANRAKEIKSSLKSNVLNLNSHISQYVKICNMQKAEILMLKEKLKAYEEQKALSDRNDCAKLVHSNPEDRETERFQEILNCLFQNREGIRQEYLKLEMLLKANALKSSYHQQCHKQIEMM
T2 sequence (P02550 whole entry partner, the tested form may be a part): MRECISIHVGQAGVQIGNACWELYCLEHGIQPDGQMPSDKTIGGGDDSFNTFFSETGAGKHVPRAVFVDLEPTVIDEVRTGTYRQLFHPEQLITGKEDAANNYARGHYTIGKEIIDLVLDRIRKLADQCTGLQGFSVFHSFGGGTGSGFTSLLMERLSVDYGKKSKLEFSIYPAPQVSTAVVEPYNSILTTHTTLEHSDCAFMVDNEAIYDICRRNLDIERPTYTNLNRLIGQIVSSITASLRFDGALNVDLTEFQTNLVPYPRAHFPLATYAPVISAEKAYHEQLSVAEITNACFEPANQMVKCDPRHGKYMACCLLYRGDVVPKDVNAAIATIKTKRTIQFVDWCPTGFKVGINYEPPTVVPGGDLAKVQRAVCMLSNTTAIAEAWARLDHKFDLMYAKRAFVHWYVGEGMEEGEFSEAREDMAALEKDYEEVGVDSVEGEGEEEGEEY
T2 sequence (P02554 whole entry partner, the tested form may be a part): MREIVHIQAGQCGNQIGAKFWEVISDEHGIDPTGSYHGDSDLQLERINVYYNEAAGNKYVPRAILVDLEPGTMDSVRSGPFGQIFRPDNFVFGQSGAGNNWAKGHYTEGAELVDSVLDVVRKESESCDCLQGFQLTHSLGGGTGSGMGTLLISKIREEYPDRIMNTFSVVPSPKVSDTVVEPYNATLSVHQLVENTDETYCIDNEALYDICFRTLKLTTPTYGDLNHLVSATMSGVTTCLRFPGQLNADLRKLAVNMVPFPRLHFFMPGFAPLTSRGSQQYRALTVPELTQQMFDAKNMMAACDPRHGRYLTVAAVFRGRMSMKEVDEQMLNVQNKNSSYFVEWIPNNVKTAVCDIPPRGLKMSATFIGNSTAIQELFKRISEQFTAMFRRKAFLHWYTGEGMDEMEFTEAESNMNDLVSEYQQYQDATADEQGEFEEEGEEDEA
Protocol: as §1, §2

[3] = Tolerability (body weight, blood counts) in tumor-bearing nude mice; type: in vivo, mouse; details: 18 days
Protocol: Female athymic nude mice were injected with 5×10^6 cells in 0.1 mL subcutaneously in the right flank. After tumors were established (average tumor volume of 150 mm^3), animals were randomized into 4 treatment groups (vehicle alone, KIF18A inhibitor at 10, 30, or 100 mg/kg) with 10 animals per group and treated orally once per day (PO, QD) starting on day 25 post-tumor implantation. Tumor measurement was calculated from the length, width and height of tumors measured with a PRO-MAX electronic digital caliper (Japan Micrometer Mfg. Co. LTD). The tumor volume was calculated as [L×W×H] and expressed in mm^3. Tumor volume and animal body weight measurements were determined twice per week (study start day 25, study end day 45). A single mouse was removed from the study (KIF18A inhibitor 30 mg/kg group) due to abdominal distention, a finding likely unrelated to compound.
Data was plotted using GraphPad Prism software (V7.0.4), tumor volume and body weight data are expressed as means plus or minus standard error of the mean and plotted as a function of time. Statistical significance of observed differences between growth curves were calculated using SLACR package (v.1.0.3). Statistical significance for tumor regressions were performed by paired Student's t-Test on the initial and final tumor volumes with significant tumor regression p-values (***p≤0.0001) for all three KIF18A inhibitor treatment groups. KIF18A inhibitor dose 10 mg/kg (81% regression, 5 of 10 tumor-free), 30 mg/kg (98% regression, 8 of 9 tumor-free), and 100 mg/kg (97% regression, 7 of 10 tumor-free).
Female athymic nude mice were injected with 5×10^6 OVCAR-8 cells in 0.1 mL subcutaneously in the right flank. […] Tumor volume and animal body weight measurements were determined twice per week (study start day 25, study end day 47). Tumor measurements, formulas, and regression analysis as described above for FIGS. 5A-5B. Data was plotted using GraphPad Prism software (V7.0.4), tumor volume and body weight data are expressed as means plus or minus standard error of the mean and plotted as a function of time. Statistical significance of observed differences between growth curves were calculated using SLACR package (v.1.0.3).
(§3) Data was graphed using GraphPad Prism 7.05.
(§4) Tumor volume and body weight assessment performed as described above. After the final dose on day 36, plasma pharmacokinetic analysis was performed as described above. All data analysis was performed as described above.
(§5) Animals were dosed IP daily with vehicle alone, C9 (50 or 100 mg/kg), or C12 (25 or 50 mg/kg). […] Tumor volume and body weight assessment performed as described above. After the final dose on day 46, plasma pharmacokinetic analysis was performed as described above except blood was drawn by retro-orbital bleed method.

[4] = tested on: OVCAR-8 tumors; assay: OVCAR-8 Tumor Xenograft Efficacy Study (IP); type: in vivo, mouse
Protocol: as §5

[5] = Terminal plasma pharmacokinetic analysis in tumor-bearing mice; type: in vivo, mouse
Protocol: as §3, §4, §5

[6] = tested on: MDA-MB-157 cells; assay: pH3 and PCM spot EC50 determination; details: pH3 and PCM spot EC50 values
[7] = tested on: OVCAR-3 tumors; assay: OVCAR-3 Tumor Xenograft Efficacy Study (IP); details: 25 mg/kg IP once daily for 18 consecutive days
Protocol: Mice were injected with human OVCAR-3 cells (5.0×10^6) subcutaneously in the right flank. Animals with established tumors were randomized into four groups (n=10 per group) with average tumor volume of 130 mm^3. […] Treatment started on day 24 post-tumor implantation and treatment terminal on day 42. Tumor volumes and body weights were recorded twice per week using a digital caliper and analytical lab scale, respectively. […] The percentage of tumor growth inhibition (% TGI) was calculated as % TGI relative to vehicle control: % TGI=100−[(Treated−Initial Volume)/(Control−Initial Volume)×100]. The percentage of tumor regression (% TR) was calculated as % TR compared final tumor volume to the initial tumor volume: % TR=100−[(Final Volume)/(Initial Volume)×100]. Data was graphed using GraphPad Prism 7.05. Statistical analysis was performed on treatment groups for tumor growth and blood counts using repeated measures ANOVA and one-way ANOVA, respectively, followed by Dunnett's multiple comparisons test.

[8] = tested on: human bone marrow mononuclear cells (HBMNC); assay: BrdU cell cycle analysis and live cell count in normal cells; type: cell-based
Protocol: (§6) The effect KIF18A inhibitor treatment has on proliferation of normal somatic cells (e.g., not neoplastic cells) was tested by assaying proliferation of human bone marrow mononuclear cells (HBMNCs), primary human foreskin fibroblast cells (hFSF) and human mammary epithelial cells via a 5-bromo-2′-deoxyuridine (BrdU) incorporation assay in which BrdU, an analog of the nucleoside thymidine, is used to identify proliferating cells (Payton et. al., Molecular Cancer Therapeutics, 17(12):2575-85 (2018)). Cells were analyzed on BD LSRFortessa flow cytometer using BD FACSDiva software (BD Biosciences), and post-acquisition data analysis was performed using FSC-Express software (De Novo). The percentage of BrdU positive gated events on the stacked DNA content histograms were reported.
To further examine the effects of KIF18A inhibitor treatment on HBMNC, two normal donors were assessed using the BrdU coupled cell cycle assay and cell count assay (96 hours) was. […] In particular, the amount of BrdU-stained proliferating cells treated with Ispinesib, paclitaxel, or a CDK 4/6 inhibitor (palbociclib) was far less than the amount of vehicle control-treated BrdU-stained cells. […] KIF18A inhibitor treatment was also analyzed for impact on live cell count. After 96 hours, live cells were counted by Vi-CELL XR Cell Viability Analyzer (Beckman Coulter).
To investigate whether KIF18A inhibitors could circumvent this normal cell toxicity barrier, we examined the effects of Compounds C9 and C11 on a panel of cycling normal somatic cell types. First, we treated human bone marrow mononuclear cells (HBMNC) from two normal donors with DMSO, Compound C9 and C11 at 1 μM, ispinesib at 0.05 μM, paclitaxel at 0.05 μM, or palbociclib at 1 μM for 48 h (cell cycle) or 96 h (cell growth).
BrdU and cell cycle analysis. Human bone marrow mononuclear cells (HBMNCs) from two normal donors (#37612, #37534) were cultured for 8 days in defined media as previously described (Payton et al 2018). HBMNCs were seeded in 24-well plate at 1.2×10^6 cells per well in duplicate plates. Cells were treated with DMSO, Compound C9 (1 μM), Compound C11 (1 μM), ispinesib (0.05 μM), paclitaxel ([…]), or palbociclib (1 μM). Cells were collected at 48 h (cell cycle) and 96 h (cell growth). The first set of plates were pulsed with BrdU for 2 h and processing for BrdU cell cycle analysis as previously described (Payton et al 2018). Cells were analyzed on BD LSRFortessa flow cytometer running BD FACSDiva software and post-acquisition data analysis was performed using FSC-Express software. Data was reported for the percentage of BrdU and subG1 gated populations. The second set of plates were collected, and cells counted using Vi-CELL XR Cell Viability Analyzer (Beckman Coulter).

[9] = tested on: human foreskin fibroblast (hFSF) cells; assay: BrdU incorporation assay in normal cells; type: cell-based; details: 48 hours
Protocol: as §6

[10] = tested on: human mammary epithelial cells (HMEC); assay: BrdU incorporation assay in normal cells; type: cell-based; details: 48 hours
Protocol: as §6

[11] = tested on: human bone marrow mononuclear cells (HBMNC); assay: BrdU cell cycle analysis and live cell count in normal cells; type: cell-based; details: 96 h; ispinesib 0.05 μM, paclitaxel 0.05 μM, palbociclib 1 μM
[12] = OVCAR-3 study, C9 100 mg/kg, C12 25 mg/kg IP daily

T1 sequence (Q8NI77 1-467): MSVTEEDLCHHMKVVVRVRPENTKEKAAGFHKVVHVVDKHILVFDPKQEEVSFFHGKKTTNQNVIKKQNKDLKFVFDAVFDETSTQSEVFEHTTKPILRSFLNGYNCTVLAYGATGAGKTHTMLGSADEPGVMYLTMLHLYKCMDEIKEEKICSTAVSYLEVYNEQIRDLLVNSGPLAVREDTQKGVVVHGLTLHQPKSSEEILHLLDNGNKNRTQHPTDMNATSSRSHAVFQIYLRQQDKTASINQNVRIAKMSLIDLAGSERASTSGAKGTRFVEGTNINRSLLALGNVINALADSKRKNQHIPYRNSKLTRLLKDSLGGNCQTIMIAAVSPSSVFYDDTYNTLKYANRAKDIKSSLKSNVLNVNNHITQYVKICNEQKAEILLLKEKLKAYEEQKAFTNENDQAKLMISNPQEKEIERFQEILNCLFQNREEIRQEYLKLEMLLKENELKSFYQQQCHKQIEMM
T1 sequence (P02550 whole entry partner, the tested form may be a part): as the sequence (P02550 whole entry partner, the tested form may be a part) above
T1 sequence (P02554 whole entry partner, the tested form may be a part): as the sequence (P02554 whole entry partner, the tested form may be a part) above

SMILES	IC50 [1] [nM]	IC50 [2] [nM]	tolerability (body weight) ([3]; CAL-51 study, C9 100 mg/kg, C12 25 mg/kg IP daily)	monocyte count ([3]; OVCAR-3 study, 25 mg/kg IP daily, p=0.043)	body weight loss or changes in blood counts [3, 12]	tolerability [3, 12]	tolerability (body weight) ([3]; OVCAR-8 study, C9 50 or 100 mg/kg, C12 25 or 50 mg/kg IP daily)	tumor regression ([4]; 25 mg/kg IP once daily for 18 consecutive days) [%]	tumor regression ([4]; 50 mg/kg IP once daily for 18 consecutive days) [%]	plasma AUC in OVCAR-8 study relative to the other efficacy studies ([5]; at matched doses) [fold]	AUC ([5]; nude, mouse, plasma, OVCAR-3 study, 25 mg/kg IP, after the final dose) [µM·h]	improvement of cell potency relative to a control compound [6] [fold]	tumor regression [7] [%]	cell cycle DNA content profiles ([8]; 48 h, C9, C11, palbociclib 1 μM, ispinesib 0.05 μM, paclitaxel)	BrdU incorporation (cell cycle analysis) relative to DMSO/vehicle control ([8]; two normal donors, 48 h, C9, C11, palbociclib 1 μM, ispinesib 0.05 μM, paclitaxel)	BrdU incorporation (cell cycle analysis) relative to DMSO/vehicle control ([8]; two normal donors, 48 h, C9, C11, palbociclib 1 μM, ispinesib 0.05 μM, paclitaxel, listed as ispinesib)	live cell count relative to vehicle control ([8]; two normal donors, 96 hours)	BrdU incorporation relative to DMSO treated cells [9]	BrdU incorporation relative to DMSO treated cells [10]	reduction in cell growth [11] [%]
C[C@@H]1CN(c2cccc(NC(=O)c3ccc(NS(=O)(=O)CCO)cc3N3CCC4(CC3)CC4)n2)CCO1 [Compound C12, (R)-4-((2-Hydroxyethyl)sulfonamido)-N-(6-(2-methylmorpholino)pyridin-2-yl)-2-(6-azaspiro[2.5]octan-6-yl)benzamide]	40	39	well-tolerated	decrease on monocytes	no evidence of body weight loss or changes in blood counts	well-tolerated	well-tolerated	19	75	2.8	53	> 120	46							
Cc1ccc(C(=O)N(CCCN)[C@@H](c2nc3cc(Cl)ccc3c(=O)n2Cc2ccccc2)C(C)C)cc1 [Ispinesib, reference compound]														marked effects on cell cycle DNA content profiles	far less	clearly cytotoxic	lower cell count	decrease in BrdU incorporation	decrease in BrdU incorporation	~88
